Data published in patent US20120316192A1, “SUBSTITUTED INDOLO [2,3-A] QUINOLIZINES” (priority 2011, published 2012).

Key:
HeLa cells [1] = experiment: FACS analysis of the cell cycle (propidium iodide DNA content); assay type: cell-based, human; settings: for cells in G1 phase / cells in G2/M phase: 24 h after treatment; for mitotic index: DMSO control 0.16
Procedure: HeLa human cervical carcinoma cell line, the human breast cancer cell line MCF7, and the human colorectal carcinoma cell line SW480 were maintained in Dulbecco's Modified Eagle's medium (DMEM, PAA, Pasching Austria). The colorectal cell line HT29 was cultured in McCoy's 5A medium (PAA, Pasching, Austria). DMEM medium was supplemented with 10% fetal calf serum, sodium pyruvate, non-essential amino acids, penicillin and streptomycin, McCoy's 5A medium was supplemented with 10% fetal calf serum, penicillin and streptomycin. All cell lines were cultured at 37° C. in a 5% CO2 humidified atmosphere. Further, fluorescent activated cell sorting (FACS) was used successfully to analyze the cell cycle and mitotic arrest under the influence of indoloquinolizines. HeLa cells were fixed and stained for FACS analysis 24 h after compound treatment. Cells were trypsinized and combined with any floating cells, pelleted, and resuspended in 1 ml PBS. Ice cold ethanol (70%) was added, and samples were incubated at −20° C. until analysis. After fixation the cells were pelleted, resuspended in 500 μl staining solution (50 μg/ml propidium iodide, 0.1 mg/ml RNase A, 0.05% Triton X-100) and incubated for 40 min at 37° C. 3 ml PBS were added; the cells were pelleted again and resuspended in 500 μl PBS. The DNA content was measured with a Becton Dickinson LSRII and analyzed with FlowJo 7.5 software. The cell cycle of compound treated HeLa cells was analyzed by fluorescence activated cell sorting (FIG. 1). […] A similar distribution is given in (−)-1-01 treated cells (FIGS. 1c and 1d); here 9% are in G1 and 38% in G2/M phase (25 μM) respectively; 8% in G1 and 40% in G2/M phase (50 μM). This means that the mitotic index is increased by more than two fold (from 0.16 to 0.38 respectively 0.40), indicating a mitotic arrest after compound treatment.

HeLa cells [2] = experiment: WST-1 cell viability and proliferation assay; assay type: cell-based, human; settings: 19 h; for cell proliferation rate (percent of DMSO control): 50 μM; for IC50: calculated from two and three experiments respectively
Procedure: (§1) HeLa human cervical carcinoma cell line, the human breast cancer cell line MCF7, the African green monkey kidney cell line BS-C-1 and the human colorectal carcinoma cell lines HCT116 and SW480 were maintained in Dulbecco's Modified Eagle's medium (DMEM, PAA, Pasching Austria). The colorectal cell line HT29 was cultured in McCoy's 5A medium (PAA, Pasching, Austria). The prostate carcinoma cells PC3 and the osteosarcoma cells Saos2 were cultured in RPMI medium (PAA, Pasching Austria). All media were supplemented with 10% fetal calf serum, L-glutamine, penicillin and streptomycin. All cell lines were maintained at 37° C. in a 5% CO2 humidified atmosphere.
(§2) The cell proliferation was determined as a function of the metabolic activity by means of the cell proliferation reagent WST-1 (Roche, Mannheim Germany). Cells were plated in quadruplicates into the wells of 96 well plates and were allowed to attach for 24 hours. Cells were then treated with different concentrations of the compounds for 19 hours. All samples contained 0.5% DMSO. Control cells were treated with 0.5% DMSO or 20 μM doxorubicin or 1 μM staurosporine. After the treatment the WST-1 reagent was added to the cells according to the manufacturer's protocol. The absorbance was measured with the TECAN Inifinite® M200 plate reader at 450/690 nm. The blank value was subtracted from each value and the percentage of viable cells was determined compared to the DMSO treated cells.
(§3) The biological activity of the indoloquinolizines was evaluated in different cell lines by means of WST-1 assay. Cells were treated with different compound concentrations (3.125 up to 50 μM) for 19 h. In HeLa cells the (−)-enantiomers of 1-01 and 1-04 caused the most dramatic decrease in cell proliferation rate with increasing concentrations (FIG. 3). At 50 μM concentration (−)-1-01 reduced the cell proliferation rate to 60% and (−)-1-04 to 67% (FIG. 3).

[3] = system: colorectal cell line HT29; experiment: WST-1 cell viability and proliferation assay; assay type: cell-based; settings: HT29, 3.125 up to 50 μM, 19 h
Procedure: as §1, §2, §3

osteosarcoma cells Saos2 = experiment: WST-1 cell viability and proliferation assay; assay type: cell-based; settings: Saos2, 3.125 up to 50 μM, 19 h
Procedure: as §1, §2, §3

[4] = system: prostate carcinoma cells PC3; experiment: WST-1 cell viability and proliferation assay; assay type: cell-based; settings: PC3, 3.125 up to 50 μM, 19 h
Procedure: as §1, §2, §3

HCT116 cells = experiment: Apo-ONE homogeneous caspase-3/7 assay (apoptosis); assay type: cell-based, human; settings: HCT116, 42 h of treatment
Procedure: as §1
(§4) Therefore we measured the caspase-3/7 activity in different cell lines with the Apo-ONE® homogeneous caspase-3/7 assay.
(§5) Caspase-3/7 activities were determined using the Apo-ONE® homogeneous caspase-3/7 assay (Promega, Mannheim Germany) according to the manufacturer's protocol. Briefly, cells were plated in quadruplicates in 384-well cell culture plate. After 24 hours cells were exposed for 42 hours to the compounds at different concentrations. Control cells were treated with 0.5% DMSO or staurosporine (STS). Subsequently cells were lysed with a lysis buffer containing the caspase-3/7 substrate Z-DEVD-R110 and were incubated at room temperature until further analysis. The fluorescence was detected with the TECAN Inifinite® M200 plate reader at excitation/emission wavelength 485/520 nm. The blank value was subtracted from each value and the relative caspase-3/7 activity was calculated compared to the DMSO treated cells.
(§6) These findings correlate with our results from the cell viability assays for these indoloquinolizine.

HeLa cells [5] = experiment: Apo-ONE homogeneous caspase-3/7 assay (apoptosis); assay type: cell-based, human; settings: 42 h of treatment
Procedure: as §1, §4, §5, §6

HT29 cell line = experiment: Apo-ONE homogeneous caspase-3/7 assay (apoptosis); assay type: cell-based; settings: HT29, 42 h of treatment
Procedure: as §1, §4, §5, §6

PC3 cell line = experiment: Apo-ONE homogeneous caspase-3/7 assay (apoptosis); assay type: cell-based; settings: PC3, 42 h of treatment
Procedure: as §1, §4, §5, §6

Saos2 cells = experiment: Apo-ONE homogeneous caspase-3/7 assay (apoptosis); assay type: cell-based; settings: Saos2, 42 h of treatment
Procedure: as §1, §4, §5, §6

all cell lines but Saos2 = experiment: Apo-ONE homogeneous caspase-3/7 assay (apoptosis), summary statement; assay type: cell-based; settings: all cell lines but Saos2, 42 h
Procedure: as §1, §4, §5, §6

| SMILES | cells in G1 phase (HeLa cells [1]; 25 μM) [%] | cells in G2/M phase (HeLa cells [1]; 25 μM) [%] | mitotic index (HeLa cells [1]; 25 μM) | cells in G1 phase (HeLa cells [1]; 50 μM) [%] | cells in G2/M phase (HeLa cells [1]; 50 μM) [%] | mitotic index (HeLa cells [1]; 50 μM) | cell proliferation rate (percent of DMSO control) (HeLa cells [2]) [%] | IC50 (HeLa cells [2]) [µM] | reduction in cell viability [3] | decrease in the proliferation rate compared with HeLa (osteosarcoma cells Saos2) | reduction in cell viability [4] | activation of caspase-3/7 (HCT116 cells) | activation of caspase-3/7 (HeLa cells [5]) | caspase-3/7 activity detected (HT29 cell line) | caspase-3/7 activity detected (PC3 cell line) | activation of caspase-3/7 (Saos2 cells) | impact on the apoptosis (all cell lines but Saos2) | IC50 (HeLa cells [2]; Homo sapiens) [µM] |
| --- | --- | --- | --- | --- | --- | --- | --- | --- | --- | --- | --- | --- | --- | --- | --- | --- | --- | --- |
| COC(=O)C1=CC(C(=O)c2ccccc2O)=CN2CCc3c([nH]c4ccccc34)C12C(=O)OC (single isomer, unassigned; (-)) [(−)-1-01, Dimethyl-3-(2-hydroxybenzoyl)-6,7,12,12b-tetrahydroindolo[2,3a]quinolizine-1,12b-dicarboxylate] | 9 | 38 | 0.38 | 8 | 40 | 0.40 | 60 | 28.4 ± 0.61 | only a slight reduction in cell viability | more dramatic | only a slight reduction in cell viability | concentration dependent increase | concentration dependent increase | only at the 50 μM concentration | only at the 50 μM concentration | concentration dependent increase | did not have any impact on the apoptosis | – |
| COC(=O)C1=CC(C(=O)c2ccccc2O)=CN2CCc3c([nH]c4ccc(OC)cc34)C12C(=O)OC (single isomer, unassigned; (-)) [(−)-1-04, Dimethyl-3-(2-hydroxybenzoyl)-9-methoxy-6,7,12,12b-tetrahydro-indolo[2,3-a]quinolizine-1,12b-dicarboxylate] | – | – | – | – | – | – | 67 | – | only a slight reduction in cell viability | more dramatic | only a slight reduction in cell viability | concentration dependent increase | concentration dependent increase | only at the 50 μM concentration | only at the 50 μM concentration | concentration dependent increase | did not have any impact on the apoptosis | 15.7 ± 1.43 |
